The source of these data is US20210228771A1, “BIOLOGIC MATERIAL COMPRISING A CROSSLINKED STRUCTURAL PROTEIN AND MACROPHAGES SEEDED ON THE CROSSLINKED STRUCTURAL PROTEIN” (CASE WESTERN RESERVE UNIVERSITY, priority 2020, published 2021).

One series concerns M0 macrophages. The experiment in a line: Western blot (arginase-1) of M0 macrophages with direct addition of genipin to culture medium. The class given is cell-based, rat. As to conditions: for arginase-1 expression in genipin treated M0 (M0-GE): 12.5 μg/ml genipin added directly to culture medium, versus cytokine induced M2. The text has this: 7b. […] A second set of experiments included the following groups: 1) Tissue culture plate with M0-polarization medium, 2) Tissue culture plate with M1-polarization medium, 3) Tissue culture plate with M2-polarization medium, 4) Tissue culture plate with M0-polarization medium with direct addition of genipin, 5) M0 subtype cells seeded on uncrosslinked collagen threads, 6) M0 subtype cells seeded on genipin crosslinked collagen threads. In this design, Groups 1-3 constitute the positive controls. […] Comparison of group 5 with group 6 determines how genipin crosslinking of collagen affect the polarization status of M0 subtype. For group 4, genipin (Wako Pure Chemical Industries, catalog #078-03021, Richmond, Va.) in 0.1% dimethyl sulfoxide (DMSO, Sigma-Aldrich, USA) (12.5 μg/ml, genipin/DMSO) was directly added to the culture medium. […] Total cell lysate was prepared using RIPA lysis buffer (#50195822), phenylmethylsulfonylfluoride (PMSF) (#NC0417414) and protease/phosphatase inhibitor (#50193743) purchased from Cell Signaling Technology. The protein concentration in the cell lysate was estimated using DC protein assay (BioRad) and 25 μg protein was resolved using 4-20% Mini-PROTEAN gels (#4561094, BioRad) and transferred to a nitrocellulose membrane (#1620213, BioRad). The membrane was blocked in 5% non-fat dry milk/1% Tween 20 for 2 hr at room temperature. They were incubated with primary antibodies anti-Arg1 for M2 (sc-271430), anti-iNOS for M1 (sc-7271), pSTAT6 (#9361S), PPAR-gamma (sc-7273) and anti-GAPDH (sc-365062) as the housekeeping protein overnight at 4° C. Following day, the blots were washed in TBST and incubated with anti-mouse secondary antibody (sc-516102) conjugated with horseradish peroxidase detected by ECL-chemiluminescence, then underwent autoradiography using BioBlue-Lite™ film (Alkali Scientific, FL). Quantitative analysis of the protein bands was performed using the Image J.
(A western blot detects proteins with antibodies after separation by electrophoresis.)

The test system of a further series is pSTAT6 and PPAR-γ. The experiment in a line: Western blot of signaling pathways in genipin induced M2 polarization. Particulars: genipin treated M0 (M0-GE). The format is cell-based, rat. The procedure:
7c. Investigation of signaling pathways involved in M2 polarization by genipin: A third set of experiments included the following groups: 1) Tissue culture plate with M2-polarization medium, 2) Tissue culture plate with M0-polarization medium with direct addition of genipin, 3) Tissue culture plate with M0-polarization medium. In this design, Groups 1 and 3 represent the positive and negative controls. Total cell lysate was prepared using RIPA lysis buffer (#50195822), phenylmethylsulfonylfluoride (PMSF) (#NC0417414) and protease/phosphatase inhibitor (#50193743) purchased from Cell Signaling Technology. The protein concentration in the cell lysate was estimated using DC protein assay (BioRad) and 25 μg protein was resolved using 4-20% Mini-PROTEAN gels (#4561094, BioRad) and transferred to a nitrocellulose membrane (#1620213, BioRad). The membrane was blocked in 5% non-fat dry milk/1% Tween 20 for 2 hr at room temperature. […] Following day, the blots were washed in TBST and incubated with anti-mouse secondary antibody (sc-516102) conjugated with horseradish peroxidase detected by ECL-chemiluminescence, then underwent autoradiography using BioBlue-Lite™ film (Alkali Scientific, FL). Quantitative analysis of the protein bands was performed using the Image J.

For series [1] the following is noted: 12.5 μg/ml; cited from earlier work.
Series [2] relates to LPS-stimulated RAW 264.7 murine macrophages cell line. As to conditions: cited from earlier work.
A further series concerns human endothelial cells. Particulars: cited from earlier work.
Series [3] deals with LPS-stimulated microglia cells derived from rat brain. Particulars: cited from earlier work.

Regarding `COC(=O)C1=CO[C@@H](O)[C@@H]2C(CO)=CC[C@H]12` [genipin], the “arginase-1 expression in genipin treated M0 (M0-GE)” value with M0 macrophages is on record as “higher than for the M2 subtype induced with standard cytokines”; in the series with M0 macrophages (listed as soluble genipin), “moderately greater than a potent cytokine”. Besides, in the series with M0 macrophages (M0GE vs. M0GES), the “increase in Arg1 expression, soluble genipin compared to genipin presented via crosslinked collagen” value is listed as “approximately 3 fold”. The pSTAT6 expression result with pSTAT6 and PPAR-γ was “significantly higher compared to M2 polarization induced by IL-4”. For the same compound, the “toxicity of genipin concentration” value in series [1] was “subtoxic”. Besides, the “TNF-α and IL-6 (pro-inflammatory markers)” value in series [2] was “suppress”. Moreover, in the series with human endothelial cells, the “TNF-α-induced VCAM-1 expression” value is recorded as “suppress”. Moreover, the “IL-10 and TNF-α production” value in series [3] was “leads to IL-10 and TNF-α production”.
